Measured values reported in PMC4559854 (Proteins, 2009).

Legend:
PSA = PSA (Homo sapiens, UniProt P07288); assay: Substrate hydrolysis assay of Abz-peptide spots with purified PSA; type: biochemical; conditions: for hydrolysis / substrate activity (in words): compared with c0
chymotrypsin = conditions: selectivity for PSA; cited from earlier work

PSA, sequence (P07288 25-261): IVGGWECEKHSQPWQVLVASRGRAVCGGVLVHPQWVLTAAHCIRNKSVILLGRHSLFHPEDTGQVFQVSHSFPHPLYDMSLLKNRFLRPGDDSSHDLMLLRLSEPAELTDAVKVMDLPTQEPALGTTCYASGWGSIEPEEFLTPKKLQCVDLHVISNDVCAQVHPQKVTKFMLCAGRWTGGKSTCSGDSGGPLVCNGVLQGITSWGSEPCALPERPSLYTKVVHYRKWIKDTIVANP

hydrolysis / substrate activity (in words) (PSA) | increase in the hydrolysis rate compared to c0 (PSA; versus c0) | Substance | hydrolysis by chymotrypsin (chymotrypsin)
high substrate activity | – | GSSKYQ [c3] | –
high activity for PSA hydrolysis | 2 fold | GSAKLQ [c7] | –
– | – | HSSKLQ | no detectable hydrolysis

Substance | hydrolysis / substrate activity (in words) (PSA) | increase in the hydrolysis rate compared to c0 (PSA; versus c0) | hydrolysis by chymotrypsin (chymotrypsin)
GSSKPQ [c4] | almost complete loss of hydrolysis activity | – | –
